From patent publication US7820636B2, “Sugar intake promoters” (Otsuka Pharmaceutical Co., Ltd., priority 2001, dated 2010)

Test system: human epidermal keratinocytes
Test: 3H-2-deoxyglucose uptake in epidermal keratinocytes
Assay type: cell-based
Conditions: for promotion effect relative to that of adenosine at the same concentration: p<0.05; for action of promoting epidermal keratinocytic glucose uptake (qualitative): FIG. 1
Method: The influence of purine base on glucose uptake in epidermal keratinocytes was examined using adenosine 5′-phosphate-2Na (AMP-2Na), adenosine and inosine as test compounds. As a control, the experiment was carried out in a similar manner without using the test compound.
Human epidermal keratinocyates (normal human neonatal foreskin epidermal keratinocytes, “Epidercell NHEK(F)”, product of Kurabo industries, Ltd.) were initially cultured in a 10-cm petri dish and stored in a frozen state until use. At the time of use, the cryopreserved cells were cultured on a 24-well plate for about 6 to 7 days and subjected to this experiment when the cells were 70-80% confluent.
A glucose-free medium was prepared by adding to a serum-free medium for the growth of epidermal keratinocytes (“HuMedia-KG2”, special ordered medium, product of Kurabo Industries, Ltd.) 1 ml of calcium solution and 0.1 ml of phenol red packaged with the medium product. Bovine serum albumin (BSA) treated with activated carbon to remove impurities was added to the medium to become a concentration of 1% and the medium was adjusted to pH 7.4 with NaOH.
1 ml of 10 mM 2-deoxyglucose, 60 μl of 250 μCi/250 μl ^3H-2-deoxyglucose and 940 μl of 1% BSA/glucose-free medium (pH 7.4) were mixed.
Epidermal keratinocytes cultured in a 24-well plate were washed with PBS(−) (Ca^2+ and Mg^2+ free phosphate buffered saline) three times. After addition of serum-free medium for the growth of epidermal keratinocytes (“HuMedia-KG2”, special ordered medium, product of Kurabo Industries, Ltd.), the cells were cultured for 2 hours and then washed with PBS(−) three times. After addition of 1 ml of 1% BSA/glucose-free medium (pH 7.4) in which the test compound was dissolved, the cells were cultured for 30 minutes and then 20 μl of ^3H-2-deoxyglucose solution was added per ml of the medium. The cells were allowed to stand for 10 minutes and then washed with ice-cooled glucose-containing PBS(−) three times. After addition of 0.5 ml of 0.1N NaOH containing 0.1% SDS, the cells ware allowed to stand in a static condition for at least 2 hours to produce a cell lysate solution. 0.5 ml of 0.11N HCl containing 0.1% SDS was added to acidify the cell lysis solution. 80 μl of the cell lysate solution was used for protein assay (“DC Protein Assay”, product of Bio-Rad), and 750 μl of the same was placed into a glass bottle. 20 ml of a liquid scintillation cocktail (ACS-II, product of Amersham) was added. After gently stirring the mixture, radioactivity was assayed using the liquid scintillation counter. The radioactivity per unit amount of protein was determined from the measured radioactivity and the amount of ^3H-2-deoxyglucose uptake (H-DPM (μg)/μg protein) was calculated by subtracting the radioactivity due to non-specific 3H-2-deoxyglucose uptake.
The above experiment was carried out twice and the mean averages were calculated. For comparison with the control, each value was converted to a ratio to the control value set as 1. […] In FIG. 1, the abscissa designates the concentration (log M) of each purine base (AMP-2Na, adenosine, inosine), and the ordinate designates the ratio of cellular 2-deoxyglucose uptake amount (H-DPM (μg)/μg protein) relative to the control set as 1.

| SMILES | promotion of glucose uptake relative to control (ratio, control = 1) (10^-5 M, first experiment) | promotion of glucose uptake relative to control (ratio, control = 1) (10^-5 M, second experiment) | promotion of glucose uptake relative to control (ratio, control = 1) (10^-6 M, first experiment) | promotion effect relative to that of adenosine at the same concentration (10^-6 M, first experiment) | promotion of glucose uptake relative to control (ratio, control = 1) (10^-6 M, second experiment) | promotion effect relative to that of adenosine at the same concentration (10^-6 M, second experiment) | glucose uptake promotion compared with inosine (qualitative) (low concentration (10^-7 M)) | action of promoting epidermal keratinocytic glucose uptake (qualitative) |
| --- | --- | --- | --- | --- | --- | --- | --- | --- |
| Nc1ncnc2c1ncn2[C@@H]1O[C@H](COP(=O)([O-])[O-])[C@@H](O)[C@H]1O.[Na+].[Na+] [AMP-2Na, adenosine 5′-phosphate-2Na] | about 1.61 times | about 1.43 times | about 1.48 times | about 1.16 times | about 1.48 times | about 1.32 times | promotes glucose uptake more effectively than inosine |  |
| Nc1ncnc2c1ncn2[C@@H]1O[C@H](CO)[C@@H](O)[C@H]1O [adenosine] |  |  |  |  |  |  |  | have the action of promoting epidermal keratinocytic glucose uptake |
| OC[C@H]1O[C@@H](n2cnc3c(O)ncnc32)[C@H](O)[C@@H]1O [inosine] |  |  |  |  |  |  |  | have the action of promoting epidermal keratinocytic glucose uptake |
